From ChEMBL document CHEMBL1138843, “Pyrazolo[1,5-a]pyrimidines: estrogen receptor ligands possessing estrogen receptor beta antagonist activity” (J Med Chem, 2004)
Values belong to the compound of their own block, whether it stands above or below them.

Columns and labels:
[1] = biological target: Estrogen receptor beta (Homo sapiens) (UniProt Q92731)
Description: Relative binding affinity for human estrogen receptor 2 compared to [3H]estradiol (100%)

[2] = biological target: T1, Estrogen receptor (Homo sapiens) (UniProt P03372)
T1 sequence (whole entry): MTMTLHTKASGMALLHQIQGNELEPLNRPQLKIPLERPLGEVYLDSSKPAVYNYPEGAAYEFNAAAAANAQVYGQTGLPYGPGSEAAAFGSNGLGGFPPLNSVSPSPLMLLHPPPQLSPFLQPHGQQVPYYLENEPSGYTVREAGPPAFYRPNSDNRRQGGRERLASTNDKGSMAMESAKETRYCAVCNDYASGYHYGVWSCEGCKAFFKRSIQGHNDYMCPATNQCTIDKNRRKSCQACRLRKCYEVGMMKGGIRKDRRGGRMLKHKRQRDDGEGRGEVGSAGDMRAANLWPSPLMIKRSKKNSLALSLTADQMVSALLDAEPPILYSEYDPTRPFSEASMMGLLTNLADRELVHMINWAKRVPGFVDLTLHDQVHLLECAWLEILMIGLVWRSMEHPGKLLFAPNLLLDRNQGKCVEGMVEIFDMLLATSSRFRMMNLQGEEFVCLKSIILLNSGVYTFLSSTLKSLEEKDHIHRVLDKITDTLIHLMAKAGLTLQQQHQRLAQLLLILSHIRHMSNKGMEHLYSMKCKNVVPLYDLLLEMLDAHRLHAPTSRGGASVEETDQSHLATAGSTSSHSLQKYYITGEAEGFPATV
Description: Relative binding affinity for human estrogen receptor 1 compared to [3H]estradiol (100%)

Estrogen receptor beta (Homo sapiens), sequence (Q92731 whole entry): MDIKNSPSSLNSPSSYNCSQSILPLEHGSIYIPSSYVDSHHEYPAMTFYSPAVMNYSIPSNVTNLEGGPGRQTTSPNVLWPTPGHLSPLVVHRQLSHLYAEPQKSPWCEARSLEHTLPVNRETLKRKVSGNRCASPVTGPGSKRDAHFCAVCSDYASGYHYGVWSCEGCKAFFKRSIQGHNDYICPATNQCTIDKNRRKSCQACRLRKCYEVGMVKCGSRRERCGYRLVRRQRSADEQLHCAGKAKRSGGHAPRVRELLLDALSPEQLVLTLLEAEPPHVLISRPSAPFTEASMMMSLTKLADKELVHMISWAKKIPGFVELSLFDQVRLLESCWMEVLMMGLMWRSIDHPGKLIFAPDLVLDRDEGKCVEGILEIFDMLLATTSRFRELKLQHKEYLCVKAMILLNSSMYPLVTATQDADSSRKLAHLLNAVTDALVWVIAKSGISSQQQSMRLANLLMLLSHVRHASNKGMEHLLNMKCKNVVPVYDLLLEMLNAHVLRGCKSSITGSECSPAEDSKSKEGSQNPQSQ

Structure (SMILES): Oc1ccc(-c2nn3c(-c4ccccc4)cc(-c4ccccc4)nc3c2-c2ccccc2)cc1
Binding affinity [1]: < 0.01 | Binding affinity [2]: < 0.01

Structure (SMILES): CC(C)c1cc(C(C)C)n2nc(-c3ccc(O)cc3)c(-c3ccccc3)c2n1
Binding affinity [1]: 0.06 | Binding affinity [2]: 0.14

Structure (SMILES): Oc1ccc(-c2nn3cccnc3c2-c2ccccc2)cc1
Binding affinity [1]: 0.02 | Binding affinity [2]: < 0.01

Structure (SMILES): Oc1ccc(-c2c(-c3ccccc3)nn3cccnc23)cc1
Binding affinity [1]: 0.05 | Binding affinity [2]: 0.01

Structure (SMILES): CC(C)c1cc(C(C)C)n2nc(-c3ccccc3)c(-c3ccc(O)cc3)c2n1
Binding affinity [1]: 0.05 | Binding affinity [2]: 0.01

Structure (SMILES): Oc1ccc(-c2nn3c(-c4ccccc4)cc(-c4ccccc4)nc3c2-c2cccc(O)c2)cc1
Binding affinity [1]: < 0.01 | Binding affinity [2]: < 0.01

Structure (SMILES): Cc1c(C(C)(C)C)nc2c(-c3cccc(O)c3)c(-c3ccc(O)cc3)nn2c1C(C)(C)C
Binding affinity [1]: 0.01 | Binding affinity [2]: 0.02

Structure (SMILES): Oc1ccc(-c2c(-c3ccccc3)nn3c(-c4ccccc4)cc(-c4ccccc4)nc23)cc1
Binding affinity [1]: < 0.01 | Binding affinity [2]: < 0.01

Structure (SMILES): Cc1c(C(C)(C)C)nc2c(-c3ccc(O)cc3)c(-c3ccccc3)nn2c1C(C)(C)C
Binding affinity [1]: 0.01 | Binding affinity [2]: < 0.01

Structure (SMILES): Oc1ccc(-c2c(-c3ccccc3)nn3c(C(F)(F)F)cc(C(F)(F)F)nc23)cc1
Binding affinity [1]: 0.05 | Binding affinity [2]: 0.01

Structure (SMILES): Cc1c(C(C)(C)C)nc2c(-c3ccccc3)c(-c3ccc(O)cc3)nn2c1C(C)(C)C
Binding affinity [1]: 0.02 | Binding affinity [2]: 0.83

Structure (SMILES): Oc1ccc(-c2c(-c3cccc(O)c3)nn3c(-c4ccccc4)cc(-c4ccccc4)nc23)cc1
Binding affinity [1]: < 0.01 | Binding affinity [2]: < 0.01

Structure (SMILES): Oc1ccc(-c2nn3c(C(F)(F)F)cc(C(F)(F)F)nc3c2-c2cccc(O)c2)cc1
Binding affinity [1]: 0.08 | Binding affinity [2]: 0.04

Structure (SMILES): Oc1ccc(-c2nn3c(C(F)(F)F)cc(C(F)(F)F)nc3c2-c2ccccc2)cc1
Binding affinity [1]: 0.41 | Binding affinity [2]: 0.39

Structure (SMILES): Oc1ccc(-c2c(-c3cccc(O)c3)nn3cccnc23)cc1
Binding affinity [1]: < 0.01 | Binding affinity [2]: < 0.01

Structure (SMILES): Oc1ccc(-c2nn3cccnc3c2-c2cccc(O)c2)cc1
Binding affinity [1]: < 0.01 | Binding affinity [2]: < 0.01

Structure (SMILES): FC(F)(F)c1cc(C(F)(F)F)n2nc(-c3ccccc3)c(-c3ccccc3)c2n1
Binding affinity [1]: < 0.01 | Binding affinity [2]: < 0.01

Structure (SMILES): CCc1cc(CC)n2nc(-c3ccccc3)c(-c3ccccc3)c2n1
Binding affinity [1]: < 0.01 | Binding affinity [2]: < 0.01

Structure (SMILES): c1ccc(-c2nn3cccnc3c2-c2ccccc2)cc1
Binding affinity [1]: < 0.01 | Binding affinity [2]: < 0.01

Structure (SMILES): Oc1ccc(-c2c(-c3cccc(O)c3)nn3c(C(F)(F)F)cc(C(F)(F)F)nc23)cc1
Binding affinity [1]: 0.04 | Binding affinity [2]: 0.01

The remaining lines, values ahead:

Binding affinity [1]: 0.01 | Binding affinity [2]: < 0.01
Structure (SMILES): CC(C)c1cc(C(C)C)n2nc(-c3cccc(O)c3)c(-c3ccc(O)cc3)c2n1

Binding affinity [1]: 0.16 | Binding affinity [2]: 0.13
Structure (SMILES): Cc1c(C(C)(C)C)nc2c(-c3ccc(O)cc3)c(-c3ccc(O)cc3)nn2c1C(C)(C)C

Binding affinity [1]: < 0.01 | Binding affinity [2]: < 0.01
Structure (SMILES): Cc1nc2c(-c3ccc(O)cc3)c(-c3cccc(O)c3)nn2c(C)c1C

Binding affinity [1]: 0.03 | Binding affinity [2]: 0.02
Structure (SMILES): Oc1ccc(-c2nn3c(-c4ccccc4)cc(-c4ccccc4)nc3c2-c2ccc(O)cc2)cc1

Binding affinity [1]: < 0.01 | Binding affinity [2]: < 0.01
Structure (SMILES): Cc1cc(C)n2nc(-c3cccc(O)c3)c(-c3ccc(O)cc3)c2n1

Binding affinity [1]: < 0.01 | Binding affinity [2]: < 0.01
Structure (SMILES): Cc1cc(C)n2nc(-c3ccccc3)c(-c3ccccc3)c2n1

Binding affinity [1]: 0.07 | Binding affinity [2]: 0.16
Structure (SMILES): CCc1cc(CC)n2nc(-c3ccc(O)cc3)c(-c3ccc(O)cc3)c2n1

Binding affinity [1]: 0.05 | Binding affinity [2]: 0.01
Structure (SMILES): Cc1cc(C)n2nc(-c3ccccc3)c(-c3ccc(O)cc3)c2n1

Binding affinity [1]: 0.01 | Binding affinity [2]: 0.01
Structure (SMILES): Cc1nc2c(-c3ccc(O)cc3)c(-c3ccc(O)cc3)nn2c(C)c1C

Binding affinity [1]: < 0.01 | Binding affinity [2]: < 0.01
Structure (SMILES): Cc1cc(C)n2nc(-c3ccc(O)cc3)c(-c3cccc(O)c3)c2n1

Binding affinity [1]: < 0.01 | Binding affinity [2]: 0.01
Structure (SMILES): CC(C)c1cc(C(C)C)n2nc(-c3ccc(O)cc3)c(-c3cccc(O)c3)c2n1

Binding affinity [1]: 0.1 | Binding affinity [2]: < 0.01
Structure (SMILES): Oc1ccc(-c2nn3cccnc3c2-c2ccc(O)cc2)cc1

Binding affinity [1]: < 0.01 | Binding affinity [2]: < 0.01
Structure (SMILES): CCc1cc(CC)n2nc(-c3cccc(O)c3)c(-c3ccc(O)cc3)c2n1

Binding affinity [1]: 0.01 | Binding affinity [2]: < 0.01
Structure (SMILES): Cc1nc2c(-c3ccc(O)cc3)c(-c3ccccc3)nn2c(C)c1C

Binding affinity [1]: < 0.01 | Binding affinity [2]: < 0.01
Structure (SMILES): Cc1nc2c(-c3cccc(O)c3)c(-c3ccc(O)cc3)nn2c(C)c1C

Binding affinity [1]: 0.07 | Binding affinity [2]: 0.04
Structure (SMILES): Cc1cc(C)n2nc(-c3ccc(O)cc3)c(-c3ccc(O)cc3)c2n1

Binding affinity [1]: < 0.01 | Binding affinity [2]: < 0.01
Structure (SMILES): CCc1cc(CC)n2nc(-c3ccc(O)cc3)c(-c3cccc(O)c3)c2n1

Binding affinity [1]: 0.02 | Binding affinity [2]: 0.01
Structure (SMILES): Cc1nc2c(-c3ccccc3)c(-c3ccc(O)cc3)nn2c(C)c1C

Binding affinity [1]: 0.05 | Binding affinity [2]: 0.02
Structure (SMILES): CCc1cc(CC)n2nc(-c3ccccc3)c(-c3ccc(O)cc3)c2n1

Binding affinity [1]: 0.07 | Binding affinity [2]: 0.1
Structure (SMILES): CC(C)c1cc(C(C)C)n2nc(-c3ccc(O)cc3)c(-c3ccc(O)cc3)c2n1

Binding affinity [1]: 0.06 | Binding affinity [2]: 0.13
Structure (SMILES): CCc1cc(CC)n2nc(-c3ccc(O)cc3)c(-c3ccccc3)c2n1

Binding affinity [1]: 0.11 | Binding affinity [2]: 0.02
Structure (SMILES): Cc1cc(C)n2nc(-c3ccc(O)cc3)c(-c3ccccc3)c2n1

Binding affinity [1]: 1.7 | Binding affinity [2]: 1.9
Structure (SMILES): Oc1ccc(-c2nn3c(C(F)(F)F)cc(C(F)(F)F)nc3c2-c2ccc(O)cc2)cc1

Binding affinity [1]: < 0.01 | Binding affinity [2]: < 0.01
Structure (SMILES): Cc1c(C(C)(C)C)nc2c(-c3ccc(O)cc3)c(-c3cccc(O)c3)nn2c1C(C)(C)C
